Experimental data as given in patent US8865865B2, “N-terminally modified tetrapeptide derivatives having a C-terminal arginine mimetic” (Philipps-Universitat Marburg, priority 2008, dated 2014).
pKi: −log10 of the molar value. Square brackets hold non-standard residues; d marks the D form. Peptide text beside a SMILES is read from it. * marks the point of attachment. hArg = N=C(N)NCCCC[C@H](N)C(=O)O; Agmatine = N=C(N)NCCCCN*; PhAc = O=C(Cc1ccccc1)*

Target: T1, Recombinantly produced human furin (Homo sapiens, UniProt P09958)
T1 construct: made in house
T1 sequence (P09958 108-794): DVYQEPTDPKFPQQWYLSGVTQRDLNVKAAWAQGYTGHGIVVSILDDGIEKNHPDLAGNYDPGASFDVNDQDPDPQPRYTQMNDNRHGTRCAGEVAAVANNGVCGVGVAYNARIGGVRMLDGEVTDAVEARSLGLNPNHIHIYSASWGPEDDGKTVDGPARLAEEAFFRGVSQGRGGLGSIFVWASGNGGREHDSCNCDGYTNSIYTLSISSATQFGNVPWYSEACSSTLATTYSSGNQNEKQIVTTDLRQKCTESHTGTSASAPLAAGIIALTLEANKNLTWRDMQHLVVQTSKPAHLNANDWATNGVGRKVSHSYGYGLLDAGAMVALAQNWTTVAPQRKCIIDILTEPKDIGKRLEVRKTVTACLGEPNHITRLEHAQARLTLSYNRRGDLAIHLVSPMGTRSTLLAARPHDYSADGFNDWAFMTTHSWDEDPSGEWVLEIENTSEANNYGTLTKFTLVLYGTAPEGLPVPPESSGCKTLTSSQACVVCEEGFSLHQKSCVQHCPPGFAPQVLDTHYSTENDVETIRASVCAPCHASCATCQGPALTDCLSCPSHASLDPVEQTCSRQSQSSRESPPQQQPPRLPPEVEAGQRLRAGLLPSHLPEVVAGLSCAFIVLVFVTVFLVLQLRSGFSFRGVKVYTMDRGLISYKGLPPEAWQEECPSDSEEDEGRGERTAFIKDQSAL
Assay: Enzyme kinetic studies to determine the inhibitory effect on furin (fluorogenic substrate Pyr-Arg-Thr-Lys-Arg-AMC)
Assay type: biochemical
Details: Table 2; substrate 12.5 μM, furin approx. 0.95 nM, competitive reversible model; read-out: Ki value for the inhibition of furin
Protocol: The determination of the inhibitory effect was carried out with a fluorescence plate reader Safire^2 from the Tecan company (λEx=380 nm, λEm=460 nm) and Pyr-Arg-Thr-Lys-Arg-AMC (Bachem, No: I-1650) as the substrate. Recombinantly produced human furin (Kacprzak, M. M. et al., J. Biol. Chem., 2004, 279, 36788-36794) was used in the measurement assay in a concentration of approx. 0.95 nM.
To determine the inhibition constants, the inhibitor concentration was varied at least over the range of an order of magnitude at a constant substrate concentration (12.5 μM in the assay), and, respectively, the steady-state velocity was determined. Km and Vmax were determined by means of v/S characteristics parallel to each inhibitor measurement. The calculation of Ki values was carried out through adjustment of the determined velocities as a function of the inhibitor concentration to the velocity equation for competitively, reversibly-binding inhibitors: […]

Going from `CC(C)[C@H](NC(=O)[C@H](CCCNC(=N)N)NC(=O)Cc1ccccc1)C(=O)N[C@@H](CCCNC(=N)N)C(=O)NCCCCNC(=N)N` [Inhibitor 2] (PhAc-Arg-Val-Arg-Agmatine) to `CC(C)[C@H](NC(=O)[C@H](CCCNC(=N)N)NC(=O)Cc1ccccc1)C(=O)N[C@@H](CCCCNC(=N)N)C(=O)NCCCCNC(=N)N` [Inhibitor 11] (PhAc-Arg-Val-[hArg]-Agmatine), the pKi rises from 7.11 to 7.33 (0.22 log units).

Compared with `CC(C)C(NC(=O)C(CCCNC(=N)N)NC(=O)Cc1ccccc1)C(=O)NC(CCCNC(=N)N)C(=O)NCCCN` (stereo not drawn) [Inhibitor 4a], `CC(C)C(NC(=O)C(CCCNC(=N)N)NC(=O)Cc1ccccc1)C(=O)NC(CCCNC(=N)N)C(=O)NCCCCN` (stereo not drawn) [Inhibitor 2a] is 1.29 log units lower in pKi: 5.89 for the first, 4.60 for the second.

Compared with `CC(C)C(NC(=O)C(CCCNC(=N)N)NC(=O)Cc1ccccc1)C(=O)NC(CCCNC(=N)N)C(=O)NCCCNC(=N)N` (stereo not drawn) [Inhibitor 4], `CC(C)[C@H](NC(=O)[C@H](CCCNC(=N)N)NC(=O)Cc1ccccc1)C(=O)N[C@@H](CCCCN)C(=O)NCCCCNC(=N)N` [Inhibitor 10] (PhAc-Arg-Val-Lys-Agmatine) is 0.30 log units higher in pKi: 7.01 for the first, 7.31 for the second.

`CC(C)C(NC(=O)C(CCCNC(=N)N)NC(=O)Cc1ccccc1)C(=O)NC(CCCNC(=N)N)C(=O)NCC1CCNCC1` (stereo not drawn) [Inhibitor 3a] gave a pKi of 5.00.

Same assay, conditions: Table 3; methods as in practical embodiment 6; read-out: Ki for the inhibition of furin

`CCCCCCCC(=O)NC(CCCNC(=N)N)C(=O)NC(C(=O)NC(CCCNC(=N)N)C(=O)NCc1ccc(C(=N)N)cc1)C(C)C` (stereo not drawn) [Inhibitor 19] and `CCCCCC(=O)NC(CCCNC(=N)N)C(=O)NC(C(=O)NC(CCCNC(=N)N)C(=O)NCc1ccc(C(=N)N)cc1)C(C)C` (stereo not drawn) [Inhibitor 18] are the same in pKi: 9.09 for the first, 9.09 for the second.

Going from `CC(=O)NC(CCCNC(=N)N)C(=O)NC(C(=O)NC(CCCNC(=N)N)C(=O)NCCCCN)C(C)C` (stereo not drawn) [Inhibitor 12] to `CC(C)C(NC(=O)C(CCCNC(=N)N)NC(=O)Cc1ccccc1)C(=O)NC(CCCCN)C(=O)NCCCCN` (stereo not drawn) [Inhibitor 14], the pKi rises from 4.38 to 5.27 (0.89 log units).

First: CC(C)C(NC(=O)C(N)CCCNC(=N)N)C(=O)NC(CCCNC(=N)N)C(=O)NCc1ccc(C(=N)N)cc1 (stereo not drawn) [Inhibitor 26]
Second: CCCC(=O)NC(CCCNC(=N)N)C(=O)NC(C(=O)NC(CCCNC(=N)N)C(=O)NCc1ccc(C(=N)N)cc1)C(C)C (stereo not drawn) [Inhibitor 17]
The pKi of the first is 0.99 log units lower: 8.12 for the first, 9.11 for the second. The second binds more tightly here.

First: N=C(N)NCCCC(NC(=O)Cc1ccccc1)C(=O)NC(CN)C(=O)NC(CCCCN)C(=O)NCc1ccc(C(=N)N)cc1 (stereo not drawn) [Inhibitor 39]
Second: CC(C)C(NC(=O)C(CCCNC(=N)N)NC(=O)Cc1ccccc1)C(=O)NC(CCCCN)C(=O)NCc1ccc(C(=N)N)cc1 (stereo not drawn) [Inhibitor 33]
The pKi of the first is 0.39 log units lower: 8.43 for the first, 8.82 for the second.

Compared with `CCCCCCCCCCCC(=O)NC(CCCNC(=N)N)C(=O)NC(C(=O)NC(CCCNC(=N)N)C(=O)NCc1ccc(C(=N)N)cc1)C(C)C` (stereo not drawn) [Inhibitor 21], `CCCCCCCCCCCCCC(=O)NC(CCCNC(=N)N)C(=O)NC(C(=O)NC(CCCNC(=N)N)C(=O)NCc1ccc(C(=N)N)cc1)C(C)C` (stereo not drawn) [Inhibitor 22] is 0.93 log units lower in pKi: 8.17 for the first, 7.24 for the second. The first binds more tightly here.

Going from `Cc1ccc(S(=O)(=O)NC(CCCNC(=N)N)C(=O)NC(C(=O)NC(CCCNC(=N)N)C(=O)NCc2ccc(C(=N)N)cc2)C(C)C)cc1` (stereo not drawn) [Inhibitor 29] to `CC(C)C(NC(=O)C(CCCNC(=N)N)NC(=O)Cc1ccc(Cl)c(Cl)c1)C(=O)NC(CCCNC(=N)N)C(=O)NCc1ccc(C(=N)N)cc1` (stereo not drawn) [Inhibitor 28], the pKi rises from 8.32 to 8.92 (0.60 log units).

For `CC(C)C(NC(=O)C(CCCNC(=N)N)NC(=O)Cc1ccccc1)C(=O)NC(CCCNC(=N)N)C(=O)NCC1CCNCC1` (stereo not drawn) [Inhibitor 15], the pKi was 5.01.

Tested on: avian influenza virus (FPV) A/FPV/Rostock/34 (H7N1)
Assay: not given
Assay type: cell-based, influenza virus A/FPV/Rostock/34 (H7N1)
Details: 25 μM inhibitor, MDCK cells, MOI 10^-5, 72 h

With `CC(C)[C@H](NC(=O)[C@H](CCCNC(=N)N)NC(=O)Cc1ccccc1)C(=O)N[C@@H](CCCNC(=N)N)C(=O)NCc1ccc(C(=N)N)cc1` [Inhibitor 1] the “delay of virus release in relation to the untreated control group” value was “about 24 h”.

Tested on: MDCK cells
Assay: not given
Details: 25 μM inhibitor, 72 h

In the case of `CC(C)[C@H](NC(=O)[C@H](CCCNC(=N)N)NC(=O)Cc1ccccc1)C(=O)N[C@@H](CCCNC(=N)N)C(=O)NCc1ccc(C(=N)N)cc1` [Inhibitor 1], the “vitality of the cells” value was “not influenced”.

Target: furin (Homo sapiens, UniProt P09958)
Sequence (P09958 108-794, species assumed): as the sequence (P09958 108-794) above
Assay: not given
Details: Kacprzak et al., J. Biol. Chem. 2004; read-out: inhibition constant (Ki value) for furin; cited from earlier work

Compared with Nona-D-arginine-amide, hexa-D-arginine-amide is 0.77 log units lower in pKi: 8.89 for the first, 8.12 for the second.
